Values of other authors in patent US20220409591A1, “Pharmaceutical Formulations for Managing Uric Acid Content in Human Body” (ZYCIE TECHNOLEGAL LLP, priority 2019, published 2022).

How the values were obtained:
[1] = known

bioavailability [1]: more than 80%
mean terminal elimination half-life [1]: 5 to 8 h
BCS class (poorly water-soluble drug): BCS Class II
SMILES: Cc1nc(-c2ccc(OCC(C)C)c(C#N)c2)sc1C(=O)O [febuxostat, 2-[3-cyano-4-(2-methylpropoxy)phenyl]-4-methylthiazole-5-carboxylic acid]
